Data: US20260250325A1, “Antiviral Polypeptide Membrane Fusion Inhibitor, and Preparation Method and Application Thereof” (priority 2025, published 2026)
Where a SMILES comes first, the peptide text is derived from it. The star is where a group is joined. X1 = CC(C)CCCC(C)C1CCC2C3CC=C4CC(OC(=O)CCC(=O)*)CCC4(C)C3CCC12C

Columns and labels:
[1] = Cytotoxicity test in HEp-2 cells (CCK8 cell viability); assay type: cell-based; settings: human; HEp-2 cells, CCK8, 1 day; read-out: CC50
Method in brief: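 Compound dilutions (final DMSO 0.5%) were applied for 1 day to HEp-2 cells plated at 30,000 per well the day before. CCK8 signal gave survival relative to cell and medium controls, and a four-parameter log(inhibitor)-response fit yielded CC50.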

RSV A long virus strain = assay type: cell-based; settings: RSV A long virus strain, HEp-2 cells, plaque reduction, 1 day; read-out: IC50
Method in brief: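 Plaque reduction in HEp-2 cells: virus (100 PFU/well) and serially diluted compound (8 concentrations) mixed 1 h, adsorbed 2 h, then overlaid with 0.8% CMC medium plus compound for 1 day at 37 °C. Spots counted after anti-RSV immunostaining; IC50 from normalized inhibition, CC50 from viability data.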

| SMILES | CC50 at 1 day [1] | IC50 (RSV A long virus strain) |
| --- | --- | --- |
| CC[C@H](C)[C@H](NC(=O)[C@H](CO)NC(=O)[C@H](C)NC(=O)[C@H](CC(=O)O)NC(=O)[C@H](Cc1ccccc1)NC(=O)[C@H](CCC(=O)O)NC(=O)[C@H](CC(=O)O)NC(=O)[C@H](Cc1c[nH]c2ccccc12)NC(C)=O)C(=O)N[C@@H](CO)C(=O)N[C@@H](CCC(N)=O)C(=O)N[C@@H](CC(N)=O)C(=O)N[C@@H](CCC(=O)O)C(=O)N[C@@H](CCCCN)C(=O)N[C@H](C(=O)N[C@@H](CC(N)=O)C(=O)N[C@@H](CCC(N)=O)C(=O)N[C@@H](CO)C(=O)N[C@@H](CC(C)C)C(=O)N[C@@H](CCC(=O)O)C(=O)N[C@@H](CCC(=O)O)C(=O)N[C@H](C(=O)N[C@@H](CCCNC(=N)N)C(=O)N[C@@H](CCCCN)C(=O)N[C@@H](CO)C(=O)N[C@@H](CC(=O)O)C(=O)N[C@@H](CCC(=O)O)C(=O)N[C@@H](CC(C)C)C(=O)N[C@@H](CC(C)C)C(=O)N[C@@H](Cc1c[nH]cn1)C(=O)N[C@@H](CC(N)=O)C(=O)N[C@@H](CC(N)=O)C(=O)N[C@@H](C)C(=O)N[C@@H](CC(C)C)C(=O)N[C@@H](CCC(=O)O)C(=O)N[C@@H](C)C(=O)N[C@@H](C)C(=O)N[C@@H](C)C(=O)N[C@@H](CCCCN)C(=O)N[C@@H](CCCCNC(=O)CCC(=O)OC1CCC2(C)C(=CCC3C2CCC2(C)C(C(C)CCCC(C)C)CCC32)C1)C(N)=O)[C@@H](C)CC)[C@@H](C)CC (some centres unmarked) [Compound 39] (Ac-WDEFDASISQNEKINQSLEEIRKSDELLHNNALEAAAKK(X1)-NH2) | > 100 µM | 0.113 µM |
| CC[C@H](C)[C@H](NC(=O)[C@H](CCCNC(=N)N)NC(=O)[C@H](CCCNC(=N)N)NC(=O)[C@H](CCCNC(=N)N)NC(=O)[C@H](CC(N)=O)NC(=O)[C@@H](NC(=O)[C@H](CCC(=O)O)NC(=O)[C@H](Cc1ccccc1)NC(C)=O)C(C)C)C(=O)N[C@@H](CCC(=O)O)C(=O)N[C@@H](CCC(N)=O)C(=O)N[C@@H](CO)C(=O)N[C@@H](CC(C)C)C(=O)N[C@@H](CCC(=O)O)C(=O)N[C@@H](CCCCN)C(=O)N[C@@H](CO)C(=O)N[C@@H](CC(C)C)C(=O)N[C@@H](CCC(=O)O)C(=O)N[C@@H](CO)C(=O)N[C@@H](CC(C)C)C(=O)N[C@@H](CCC(=O)O)C(=O)N[C@@H](CCC(=O)O)C(=O)N[C@@H](CCC(=O)O)C(=O)N[C@@H](CCC(=O)O)C(=O)N[C@@H](Cc1c[nH]cn1)C(=O)N[C@@H](CO)C(=O)N[C@@H](CC(=O)O)C(=O)N[C@@H](CCCCN)C(=O)N[C@@H](CCCCN)C(=O)N[C@@H](CC(C)C)C(=O)N[C@@H](Cc1c[nH]cn1)C(=O)N[C@@H](CC(N)=O)C(=O)N[C@@H](CCC(=O)O)C(=O)N[C@@H](CC(C)C)C(=O)N[C@@H](Cc1c[nH]cn1)C(N)=O [Compound 46] (Ac-FEVNRRRIEQSLEKSLESLEEEEHSDKKLHNELH-NH2) | > 8 µM | > 8 µM |
| CC[C@H](C)[C@H](NC(=O)[C@H](Cc1ccccc1)NC(=O)[C@H](CCCCN)NC(=O)[C@H](CC(C)C)NC(=O)[C@H](CO)NC(=O)[C@H](CCC(N)=O)NC(=O)[C@H](CCC(=O)O)NC(=O)[C@@H](NC(=O)[C@H](CCCCN)NC(=O)[C@H](CCCCN)NC(=O)[C@H](CC(N)=O)NC(=O)[C@@H](NC(=O)[C@H](CCC(N)=O)NC(=O)[C@H](CCC(=O)O)NC(=O)[C@H](CC(C)C)NC(=O)[C@H](CO)NC(C)=O)C(C)C)[C@@H](C)CC)C(=O)N[C@@H](CCC(=O)O)C(=O)N[C@@H](CCCCN)C(=O)N[C@@H](CO)C(=O)N[C@@H](CC(=O)O)C(=O)N[C@@H](CCCCN)C(=O)N[C@@H](CC(C)C)C(=O)N[C@@H](CC(C)C)C(=O)N[C@@H](CCC(=O)O)C(=O)N[C@@H](CC(N)=O)C(=O)NCC(=O)N[C@@H](CO)C(=O)NCC(=O)N[C@@H](CO)C(=O)NCC(=O)N[C@@H](CCCCNC(=O)CCC(=O)OC1CCC2(C)C(=CCC3C2CCC2(C)C(C(C)CCCC(C)C)CCC32)C1)C(N)=O (some centres unmarked) [Positive polypeptide 1, reference compound] (Ac-SLEQVNKKIEQSLKFIEKSDKLLENGSGSGK(X1)-NH2) | 3.69 µM | 0.15 µM |
| CC[C@H](C)[C@H](NC(C)=O)C(=O)N[C@@H](CCC(=O)O)C(=O)N[C@@H](CCC(N)=O)C(=O)N[C@H](C(=O)N[C@@H](CC(N)=O)C(=O)N[C@@H](CCCCN)C(=O)N[C@@H](CCCCN)C(=O)N[C@H](C(=O)N[C@@H](CCC(=O)O)C(=O)N[C@@H](CCC(N)=O)C(=O)N[C@@H](CO)C(=O)N[C@@H](CC(C)C)C(=O)N[C@@H](CCCCN)C(=O)N[C@@H](Cc1ccccc1)C(=O)N[C@H](C(=O)N[C@@H](CCC(=O)O)C(=O)N[C@@H](CCCCN)C(=O)N[C@@H](CO)C(=O)N[C@@H](CC(=O)O)C(=O)N[C@@H](CCCCN)C(=O)N[C@@H](CC(C)C)C(=O)N[C@@H](CC(C)C)C(=O)N[C@@H](CCC(=O)O)C(=O)N[C@@H](CC(N)=O)C(=O)N[C@H](C(=O)N[C@@H](CC(N)=O)C(=O)N[C@@H](CCCCN)C(=O)NCC(=O)N[C@@H](CCCCN)C(N)=O)C(C)C)[C@@H](C)CC)[C@@H](C)CC)C(C)C [Positive polypeptide 2, reference compound] (Ac-IEQVNKKIEQSLKFIEKSDKLLENVNKGK-NH2) | > 10 µM | > 0.3 µM |
| CC[C@H](C)[C@H](NC(C)=O)C(=O)N[C@@H](CCC(=O)O)C(=O)N[C@@H](CCC(=O)O)C(=O)N[C@H](C(=O)N[C@@H](CC(N)=O)C(=O)N[C@@H](CCCCN)C(=O)N[C@@H](CCCCN)C(=O)N[C@H](C(=O)N[C@@H](CCC(=O)O)C(=O)N[C@@H](CCC(=O)O)C(=O)N[C@@H](CO)C(=O)N[C@@H](CC(C)C)C(=O)N[C@@H](CCCCN)C(=O)N[C@@H](CCCCN)C(=O)N[C@H](C(=O)N[C@@H](CCC(=O)O)C(=O)N[C@@H](CCC(=O)O)C(=O)N[C@@H](CO)C(=O)N[C@@H](CC(=O)O)C(=O)N[C@@H](CCCCN)C(=O)N[C@@H](CCCCN)C(=O)N[C@@H](CC(C)C)C(=O)N[C@@H](CCC(=O)O)C(=O)N[C@@H](CCC(=O)O)C(=O)N[C@H](C(=O)N[C@@H](CC(N)=O)C(=O)N[C@@H](CCCCN)C(=O)N[C@@H](CCCCN)C(=O)N[C@@H](CCCCN)C(=O)N[C@@H](CCC(=O)O)C(=O)N[C@@H](C)C(=O)N[C@@H](C)C(=O)N[C@@H](C)C(=O)N[C@@H](CCCCN)C(=O)N[C@@H](CCCCNC(=O)CCC(=O)OC1CCC2(C)C(=CCC3C2CCC2(C)C(C(C)CCCC(C)C)CCC32)C1)C(N)=O)C(C)C)[C@@H](C)CC)[C@@H](C)CC)C(C)C (some centres unmarked) [Positive polypeptide 3, reference compound] (Ac-IEEVNKKIEESLKKIEESDKKLEEVNKKKEAAAKK(X1)-NH2) | > 10 µM | > 0.3 µM |
| CC[C@H](C)[C@H](NC(C)=O)C(=O)N[C@@H](CCC(=O)O)C(=O)N[C@@H](CCC(N)=O)C(=O)N[C@H](C(=O)N[C@@H](CC(N)=O)C(=O)N[C@@H](CCCCN)C(=O)N[C@@H](CCCCN)C(=O)N[C@H](C(=O)N[C@@H](CCC(=O)O)C(=O)N[C@@H](CCC(N)=O)C(=O)N[C@@H](CO)C(=O)N[C@@H](CC(C)C)C(=O)N[C@@H](CCCCN)C(=O)N[C@@H](Cc1ccccc1)C(=O)N[C@H](C(=O)N[C@@H](CCC(=O)O)C(=O)N[C@@H](CCCCN)C(=O)N[C@@H](CO)C(=O)N[C@@H](CC(=O)O)C(=O)N[C@@H](CCCCN)C(=O)N[C@@H](CC(C)C)C(=O)N[C@@H](CC(C)C)C(=O)N[C@@H](CCC(=O)O)C(=O)N[C@@H](CC(N)=O)C(=O)N[C@H](C(=O)N[C@@H](CC(N)=O)C(=O)N[C@@H](CCCCN)C(=O)NCC(=O)N[C@@H](CCCCN)C(=O)N[C@@H](CS)C(=O)N[C@@H](CCC(=O)O)C(=O)N[C@@H](C)C(=O)N[C@@H](C)C(=O)N[C@@H](C)C(=O)N[C@@H](CCCCN)C(=O)N[C@@H](CCCCNC(=O)CCC(=O)OC1CCC2(C)C(=CCC3C2CCC2(C)C(C(C)CCCC(C)C)CCC32)C1)C(N)=O)C(C)C)[C@@H](C)CC)[C@@H](C)CC)C(C)C (some centres unmarked) [Positive polypeptide 4, reference compound] (Ac-IEQVNKKIEQSLKFIEKSDKLLENVNKGKCEAAAKK(X1)-NH2) | 4.62 µM | 0.19 µM |
| CC[C@H](C)[C@H](NC(=O)[C@H](Cc1ccccc1)NC(=O)[C@H](CCCCN)NC(=O)[C@H](CC(C)C)NC(=O)[C@H](CO)NC(=O)[C@H](CCC(N)=O)NC(=O)[C@H](CCC(=O)O)NC(=O)[C@@H](NC(=O)[C@H](CCCCN)NC(=O)[C@H](CCCCN)NC(=O)[C@H](CC(N)=O)NC(=O)[C@@H](NC(=O)[C@H](CCC(N)=O)NC(=O)[C@H](CCC(=O)O)NC(=O)[C@H](CC(C)C)NC(C)=O)C(C)C)[C@@H](C)CC)C(=O)N[C@@H](CCC(=O)O)C(=O)N[C@@H](CCCCN)C(=O)N[C@@H](CO)C(=O)N[C@@H](CC(=O)O)C(=O)N[C@@H](CCCCN)C(=O)N[C@@H](CC(C)C)C(=O)N[C@@H](CC(C)C)C(=O)N[C@@H](CCC(=O)O)C(=O)N[C@@H](CC(N)=O)C(=O)N[C@H](C(=O)N[C@@H](CC(N)=O)C(=O)N[C@@H](CCCCN)C(=O)NCC(=O)N[C@@H](CCCCN)C(=O)N[C@@H](CS)C(=O)N[C@@H](CCC(=O)O)C(=O)N[C@@H](C)C(=O)N[C@@H](C)C(=O)N[C@@H](C)C(=O)N[C@@H](CCCCN)C(=O)N[C@@H](CCCCNC(=O)CCC(=O)OC1CCC2(C)C(=CCC3C2CCC2(C)C(C(C)CCCC(C)C)CCC32)C1)C(N)=O)C(C)C (some centres unmarked) [Positive polypeptide 5, reference compound] (Ac-LEQVNKKIEQSLKFIEKSDKLLENVNKGKCEAAAKK(X1)-NH2) | 3.72 µM | > 0.3 µM |
